From patent US9822342B2, “Method of efficiently inducing cardiomyocytes” (KYOTO UNIVERSITY, priority 2013, dated 2017)

Assays:
Type in all cases: cell-based, human
[1] = system: 201B7 cell line (iPS cells); assay: Cardiomyocyte induction, conventional method (comparative example); cTNT-positive cells by flow cytometry; settings: Day 20; 1 μM IWP-3 with 10 ng/mL VEGF Day 4 to Day 8; no dissociation/reaggregation
Procedure: Three days before differentiation induction (Day −3), the 201B7 cell line was treated with Collagenase type B solution (Roche) for 5 minutes, and the solution was then removed, followed by treating the cells with 0.25% trypsin-EDTA (Invitrogen) for 2 to 3 minutes. After washing the cells with PBS solution (Nacalai Tesque), the obtained iPS cells were detached with a cell scraper and recovered. The iPS cells were then plated on a well of a Matrigel-coated 6-well plate, and cultured in MEF (mouse fetal fibroblast)-conditioned medium (MEF-CM) for 3 days.
Subsequently (Day 0), treatment with Collagenase type B solution was carried out for 10 minutes. After removing the solution, the iPS cells were treated with 0.25% trypsin-EDTA for 1 to 2 minutes, and then detached with a cell scraper. STEMPRO 34 (Invitrogen) supplemented with 1% L-glutamine (Invitrogen), 150 μg/mL transferrin (Roche), 50 μg/mL ascorbic acid (Sigma), 3.9×10^−3% MTG (1-Thyoglycerol) (Sigma), 10 μM Rock inhibitor (Y-27632, Wako), and 2 ng/mL BMP4 (R&D) was added to the cells, and the cells were then divided into small clusters by pipetting. The resulting cell clusters were transferred to a well of a low-adhesion […], and culture was carried out at 37° C. under 5% oxygen to prepare embryoid bodies (EBs). […]
(§1) After the culture (Day 20), the obtained cells were evaluated. […]

[2] = system: MYH, 409B2, 606A1, 457C1 and KhES1 cell lines; assay: IW and IWDS methods, timing of dissociation/reaggregation (2); settings: IW method; dissociation at d2.5 to d5; evaluated at d15
Source text: (§2) In the modified method for inducing cardiomyocytes (IW) and the IWDS method described above, the timing of the dissociation into single cells and the reaggregation carried out on Day 4 was changed to investigate the effect of the change on pluripotent stem cell lines (KhES1 cell line, KhES3 cell line, MYH cell line, 409B2 cell line, 427F1 cell line, 606A1 cell line, 610B1 cell line, 457C1 cell line, 604A1 cell line, and 648A1 cell line) (FIG. 8). The culture from Day 1 in STEMPRO 34 supplemented with 1% L-glutamine, 150 μg/mL transferrin, 50 μg/mL ascorbic acid, 3.9×10^−3% MTG, 18 ng/mL BMP4, 10 ng/mL bFGF, and 12 ng/mL activin A was carried out for various periods within the range of 1.5 days to 5 days. Thereafter, dissociation and reaggregation of the obtained cells were carried out. That is, dissociation of each cell line was carried out at various times between Day 2.5 (d2.5) and Day 6 (d6) after the induction at intervals of 6 hours, followed by reaggregation culture.
(§3) In the last step, the cells of each cell line were cultured under normal oxygen concentration until d15 in STEMPRO 34 supplemented with 1% L-glutamine, 150 μg/mL transferrin, 50 μg/mL ascorbic acid, 3.9×10^−3% MTG, 10 ng/mL VEGF, and 5 ng/mL bFGF, and evaluated based on the content of cTNT-positive cells.

[3] = system: 427F1, 610B1, 604A1, 648A1 and KhES3 cell lines; assay: as above; settings: IW method; dissociation at d2.5 to d4; evaluated at d15
Source text: as §2, §3

[4] = system: 201B7 cell line (iPS cells); assay: Modified method for inducing cardiomyocytes (IW); cTNT-positive cells by flow cytometry; settings: Day 20
Procedure: After treatment of the 201B7 cell line with CTK solution (ReproCELL) for 2 minutes, the solution was removed. Subsequently, the cells were treated with Accumax (Innovative Cell Technologies) for 5 minutes, and dissociated into single cells by pipetting. The cells were recovered by centrifugation, and plated on a low-adhesion 96-well dish (Corning) at 2500 cells/well. Culture was carried out at 37° C. under 5% oxygen in STEMPRO 34 supplemented with 1% L-glutamine, 150 μg/mL transferrin, 50 μg/mL ascorbic acid (Sigma), 3.9×10^−3% MTG, 10 μM Rock inhibitor, 2 ng/mL BMP4 (R&D), and 0.50% Matrigel (Growth Factor Reduced), to allow formation of EBs (Day 0). It was found, in this culture, that the efficiency of induction of cardiomyocytes decreases in cases where the EB cells are formed from not more than 1000 cells or not less than 4000 cells per well.
On the next day (Day 1), an equal volume of STEMPRO 34 supplemented with 1% L-glutamine, 150 μg/mL transferrin, 50 μg/mL ascorbic acid, 3.9×10^−3% MTG, 18 ng/mL BMP4, 10 ng/mL bFGF, and 12 ng/mL activin A was added to the 96-well plate in which the EBs were cultured, and culture was carried out at 37° C. under 5% oxygen for 3 days.
Subsequently (Day 4), the obtained EBs were allowed to naturally precipitate, and the medium was removed. […]
as §1

Cc1ccc2nc(NC(=O)CSc3nc4c(c(=O)n3-c3ccc(F)cc3)SCC4)sc2c1 [IWP-3]
content of cTNT-positive cells [1]: 58.6%
efficiency of cardiomyocyte induction (content of cTNT-positive cells) [2]: high efficiency
efficiency of cardiomyocyte induction (content of cTNT-positive cells) [3]: high efficiency
content of cTNT-positive cells ([4]; dissociation/reaggregation on Day 4, 1 μM IWP-3 with 10 ng/mL VEGF for 4 days): 82.9%
content of cTNT-positive cells ([4]; no dissociation into single cells on Day 4, medium with 1 μM IWP-3 and 10 ng/mL VEGF): 69.3%
